Here are results for one compound from patent US20180135134A1, “TARGETED SELECTION OF PATIENTS FOR TREATMENT WITH CORTISTATIN DERIVATIVES” (President and Fellows of Harvard College, priority 2015, published 2018).

The test system of test [1] is RUNX1 target gene signatures. Briefly: Gene expression and gene set enrichment analysis (GSEA) in SET-2 cells. The class given is cell-based, human. To be noted: 4 h 25 nM CA. How it is done:
Leukemia cells were plated (12-well) in triplicate at 500,000-800,000 cells per ml and incubated in the presence of vehicle (0.1% DMSO) or CA (25 nM 3 h for K562, MOLM-14 and MV4;11; 10 nM 24 h for MOLM-14; 25 nM 4 h for SET-2, n=3 for each cell line). Cells were then washed twice with cold PBS, and snap frozen. RNA was isolated (RNeasy Plus Microkit, Qiagen or TRIzol, Life Technologies), processed, and, for K562, MOLM-14 and MV4;11, hybridized to the Human U133 Plus 2.0 microarray (Affymetrix). Microarrays were processed with Bioconductor packages affyQCReport for quality control and affy for background correction, summarization, and normalization using rma. […] SET-2 and HCT 116 gene expression was measured by RNA-seq. […] Reads were aligned in two passes, first with rnaStar (v.2.3.0e) then with BWA (v.0.7.5a) for remaining unmapped reads, both using default parameters. Mapped reads were merged and counted using HTSeq (v.0.5.3p3) with -s yes -m intersection-strict. […] Samples were run in a single lane on an Illumina HiSEQ 2000 sequencer with a single read flow cell using 1×50-bp reads and a 6-cycle index read. Reads were mapped to the hgl9 reference genome using Tophat2 v.2.0.6 with custom settings including the setting of—library-type fr—firstrand to appropriately account for the stranded nature of the protocol. […]

Another test deals with SK-N-F1. The test is described as follows: Soft agar growth assay (Alamar Blue). To be noted: Neuroblastoma, 100 nM cortistatin A. For orientation: The colour change of resazurin is a common sign of viable cells or microbes.
The target of another test is CDK19 W105M (Homo sapiens, UniProt Q9BWU1, W105M). As to conditions: expression of CDK19 W105M; FIG. 9.
In the next test the test system is ALL-SIL. The test is described as follows: Cellular proliferation assay (CellTiter-Glo). As to conditions: Homo sapiens. A general note: Cellular ATP, detected with luciferase, serves as a proxy for viable cell number.
For the next test, the system named is Caki-2. The test is described as follows: Soft agar growth assay (Alamar Blue). As to conditions: clear cell renal cell carcinoma, Loss of function VHL mutation (VHL negative), 100 nM cortistatin A.
Another test concerns MM1.S. Briefly: Cellular proliferation assay (CellTiter-Glo). As to conditions: Homo sapiens.
The next test deals with RL95-2. Briefly: Soft agar growth assay (Alamar Blue). As to conditions: ER-alpha positive, 100 nM cortistatin A.
In test [2] the test system is RUNX1 target gene signatures. Briefly: Gene expression and gene set enrichment analysis (GSEA) in MOLM-14 cells. To be noted: 3 h 25 nM CA. The format is cell-based, human. An excerpt:
Kasumi-1 AML cells contain the RUNX1-RUNX1T1 fusion. A gene set was obtained that measured the genes in Kasumi-1 cells that increase in expression upon knockdown of RUNX1-RUNX1T1 (Ben-Ami, O. et al. Cell Reports 4, 1131-1143 (2013)). Using gene set enrichment analysis (Subramanian, A. et. al. Proc. Natl Acad. Sci. USA 102, 15545-15550 (2005)), this gene set, together with the Broad Molecular Signatures database (C2) was compared to genes differentially expressed in MOLM-14 cells upon treatment with 25 nM cortistatin A for 3 hrs (FIG. 2).
Leukemia cells were plated (12-well) in triplicate at 500,000-800,000 cells per ml and incubated in the presence of vehicle (0.1% DMSO) or CA (25 nM 3 h for K562, MOLM-14 and MV4;11; 10 nM 24 h for MOLM-14; 25 nM 4 h for SET-2, n=3 for each cell line). Cells were then washed twice with cold PBS, and snap frozen. RNA was isolated (RNeasy Plus Microkit, Qiagen or TRIzol, Life Technologies), processed, and, for K562, MOLM-14 and MV4;11, hybridized to the Human U133 Plus 2.0 microarray (Affymetrix). Microarrays were processed with Bioconductor packages affyQCReport for quality control and affy for background correction, summarization, and normalization using rma. Probe sets present in at least 1 sample (based on affy mas5call) and for which the interquartile range was >log2(1.2) were retained for further analysis. The limma Bioconductor package was used for differential expression analysis of CA-treated versus DMSO control samples (Benjamini-Hochberg adjusted P<0.05). SET-2 and HCT 116 gene expression was measured by RNA-seq. SET-2 RNA-seq libraries were prepared and processed using the Ion Torrent workflow. Reads were aligned in two passes, first with rnaStar (v.2.3.0e) then with BWA (v.0.7.5a) for remaining unmapped reads, both using default parameters. Mapped reads were merged and counted using HTSeq (v.0.5.3p3) with -s yes -m intersection-strict. The Bioconductor package DESeq was used for DE analysis (FDR<0.05 and twofold change) and normalization. HCT116 cells were grown to approximately 80% confluence and were treated with either 100 nM CA or DMSO for 3 h (n=3). Cells were then washed twice with cold PBS and scraped into TRIzol reagent (Life Technologies). After collecting the RNA, it was further purified using an RNeasy mini kit (Qiagen) with an on-column DNase I digestion. Libraries for Illumina sequencing were generated via the Illumina TruSEQ stranded mRNA prep kit. Samples were run in a single lane on an Illumina HiSEQ 2000 sequencer with a single read flow cell using 1×50-bp reads and a 6-cycle index read. Reads were mapped to the hgl9 reference genome using Tophat2 v.2.0.6 with custom settings including the setting of—library-type fr—firstrand to appropriately account for the stranded nature of the protocol. HTSeq v.0.6.1 was used to obtain read counts over annotated genes and differentially expressed genes were called by DESeq v.1.10.1 with a padj value of less than 0.01. Counts were normalized for GSEA using the limma voom function. Expression data for the I-BET151 comparison were downloaded from ArrayExpress (https://www.ebi.ac.uk/arrayexpress, accession E-MTAB-774) and processed files used as is. Gene lists were submitted to the DAVID web server (http://david.abcc.ncifcrf.gov) for functional annotation. GSEA version 2.09 was carried out using signal-to-noise on natural values as the metric. Signatures included curated gene sets (C2, v.3) downloaded from the Broad's MSigDB as well as signatures curated from in-house and published data sets.

For the next test, the system named is MKPL-1. Briefly: Cellular proliferation assay (CellTiter-Glo). As to conditions: Homo sapiens, 240 h.
A further test relates to RUNX1. Briefly: RUNX1 recruitment to genomic loci. The format is cell-based, human. To be noted: FIG. 11.
For another test, the system named is JeKo-1. Briefly: Cellular proliferation assay (CellTiter-Glo). As to conditions: Homo sapiens.
A further test has as its system A498. Briefly: Soft agar growth assay (Alamar Blue). To be noted: clear cell renal cell carcinoma, Loss of function VHL mutation (VHL negative), 100 nM cortistatin A.
For the next test, the system named is HEL. Briefly: Cellular proliferation assay (CellTiter-Glo). As to conditions: Homo sapiens.
The test system of the next test is CDK8/19. As to conditions: 1,000 nM cortistatin A; FIG. 7B.
The next test concerns SK.BR-3. The test is described as follows: Soft agar growth assay (Alamar Blue). As to conditions: Breast cancer, HER2 overexpression, 100 nM cortistatin A.

Bounds are passed on as bounds.

CDK19 W105M, sequence (Q9BWU1 whole entry W105M): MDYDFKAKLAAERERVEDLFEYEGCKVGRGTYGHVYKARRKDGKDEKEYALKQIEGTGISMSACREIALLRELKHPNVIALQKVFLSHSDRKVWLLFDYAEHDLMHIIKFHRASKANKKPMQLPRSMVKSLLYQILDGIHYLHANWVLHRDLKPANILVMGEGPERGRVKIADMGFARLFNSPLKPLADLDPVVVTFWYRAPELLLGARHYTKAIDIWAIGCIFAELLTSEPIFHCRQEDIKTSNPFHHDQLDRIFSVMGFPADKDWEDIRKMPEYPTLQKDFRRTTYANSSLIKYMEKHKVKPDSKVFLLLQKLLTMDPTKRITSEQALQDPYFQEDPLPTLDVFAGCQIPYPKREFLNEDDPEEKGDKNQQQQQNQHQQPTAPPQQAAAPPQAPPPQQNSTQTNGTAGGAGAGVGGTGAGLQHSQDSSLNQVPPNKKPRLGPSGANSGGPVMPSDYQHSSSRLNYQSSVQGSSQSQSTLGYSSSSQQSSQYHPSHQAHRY
CDK19 W105M, sequence (P24863 whole entry partner): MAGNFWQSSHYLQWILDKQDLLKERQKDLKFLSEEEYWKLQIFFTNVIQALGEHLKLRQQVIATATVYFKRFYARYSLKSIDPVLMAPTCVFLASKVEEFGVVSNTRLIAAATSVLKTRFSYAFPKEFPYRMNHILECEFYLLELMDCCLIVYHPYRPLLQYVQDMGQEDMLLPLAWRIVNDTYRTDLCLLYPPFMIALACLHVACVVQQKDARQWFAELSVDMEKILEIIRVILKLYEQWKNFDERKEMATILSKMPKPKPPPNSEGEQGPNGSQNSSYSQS
Method for A498: (§1) For the 62 cell lines 96 well suspension cell culture plates were prepared. 100 μL of the soft agar bottom layer (0.6% final concentration in complete medium) was poured and left to solidify. 50 μL of the soft agar top layer (0.4% final concentration) containing the corresponding cells and cell number were then added on top, solidified and incubated at 37° C., 10% CO2. After the soft agar had solidified, the test items were added at indicated final concentrations into the inner wells of the plate. Subsequently, the assay was incubated in cell culture incubators for 8 to 14 days. Finally, the assay was developed using Alamar Blue and upon 1-5 h of incubation at 37° C. fluorescence intensity was determined (excitation: 560 nm; emission: 590 nm). As low control, cells were treated with 1E-05M Staurosporine (6fold values). As high control, cells were treated with 0.1% DMSO (solvent control, 6 fold values).
(§2) Raw data were converted into percent soft agar growth relative to high controls (solvent 0.1% DMSO) and low controls (1E-05M Staurosporine), which were set to 100% and 0%, respectively.
Method for ALL-SIL: (§3) All suspension cells were plated (96-well) in triplicate at 5,000-30,000 cells per well for testing (n=3). Viable cell number was estimated after 3, 7 and 10 days by counting viable cells from one vehicle well, generating a cell dilution series, transferring 20 ml per well in duplicate to a 384-well plate, and performing a linear regression to CellTiter-Glo (Promega) response (SPECTRAmax M3, Molecular Devices). Cells from all wells were also fourfold diluted in media and transferred in duplicate for CellTiter-Glo measurement. On days 3 and 7, an equal volume for all wells was split-back with fresh media and compound, such that the resulting cell density for the vehicle well matched the initial seeding density. For days 7 and 10, estimated cell number represents the split-adjusted theoretical cell number. […] For growth assays with inhibitors, n=3 for each concentration with two independent experiments.
Method for CDK19 W105M: 5′-Flag-tagged CDK8 and CDK19 were cloned from pBabe.puro.CDK8.flag (Addgene 19758) and F-CDK8L (Addgene 24762) into pLVX-EF1alpha-IRES-mCherry and pLVX-EF1alpha-IRES-ZsGreen (Clontech) and transformed into E. coli (One Shot Stbl3, Invitrogen). Point mutations were introduced by whole-plasmid PCR (QuikChange II XL Site-Directed Mutagenesis Kit, Agilent). pLVX lentiviral vectors were co-transfected with psPASx and pMD2.G (Addgene) in 293T cells. After 48 h, viral supernatants were collected and passed through a 0.45 m filter (Millipore). For transductions, 24-well plates were coated with 500 μl of 20 μg ml RetroNectin (Clontech) at 4° C. overnight, blocked with 2% BSA for 30 min, washed with PBS, and 300-500 μl of viral supernatant was added. The plates were centrifuged (2,000 g, 1.5 h) and then set in an incubator. After 2 h, viral supernatant was removed and 500 μl per well of 200,000 cells per ml was added. After 1-3 days, the cells were expanded and isolated by FACS.
Method for CDK8/19: Native kinome profiling was performed with MOLM-14 cell lysate according to the KiNativ Method by ActivX Biosciences. For each peptide quantified, the change in mass spectrometry signal for the treated samples relative to the signal for the control samples was expressed as percentage inhibition.
Method for Caki-2: as §1, §2
Method for HEL: as §3
Method for JeKo-1: (§4) All suspension cells were plated (96-well) in triplicate at 5,000-30,000 cells per well for testing (n=3). Viable cell number was estimated after 3, 7 and 10 days by counting viable cells from one vehicle well, generating a cell dilution series, transferring 20 ml per well in duplicate to a 384-well plate, and performing a linear regression to CellTiter-Glo (Promega) response (SPECTRAmax M3, Molecular Devices). Cells from all wells were also fourfold diluted in media and transferred in duplicate for CellTiter-Glo measurement. On days 3 and 7, an equal volume for all wells was split-back with fresh media and compound, such that the resulting cell density for the vehicle well matched the initial seeding density. For days 7 and 10, estimated cell number represents the split-adjusted theoretical cell number. HCT116 were plated (96-well) in triplicate at 250 cells per well. Cells were incubated in the presence of vehicle, 1 μM paclitaxel, or compound. On day 7, CellTiter-Blue (Promega) response was measured and values were normalized to vehicle (100% growth) and paclitaxel (0% growth). For growth assays with inhibitors, n=3 for each concentration with two independent experiments.
Method for MKPL-1: as §3
Method for MM1.S: as §4
Method for RL95-2: as §1, §2
Method for SK-N-F1: as §1, §2
Method for SK.BR-3: as §1, §2

`CN(C)[C@H]1C[C@@]23CC[C@@]4(O2)C(=CC[C@]2(C)[C@@H](c5ccc6ccncc6c5)CC[C@H]24)C=C3[C@@H](O)[C@@H]1O` [Cortistatin A, cortistatin A]: the NES is 2.03 in test [1] (signature: GATA1/GATA2/RunX1/FLI1/SCL Binding Sites in Mks); 2.27 in test [1] (signature: GATA1/SCL Binding Sites in Mks); 2.50 in test [2] (signature: Downregulated by RUNX1-RUNX1T1 in CD34+ cord blood cells); 2.21 in test [2] (signature: Downregulated by RUNX1 knockdown in Kasumi-1 cells); 2.00 in test [2] (signature: Downregulated by RUNX1 knowndown in Jurkat cells); 2.56 in test [2] (signature: Upregulated by C/EBPα in Burkitt lymphoma cells). For the same compound, the NES in test [2] (signature: Upregulated by C/EBPα in K562 cells) worked out at 2.22; in test [2] (signature: Upregulated by C/EBPα in KCL22 cells) it was 2.22; in test [2] (signature: Upregulated by RUNX1-RUNX1T1 knockdown in Kasumi-1 cells), 2.78. Besides, the “% growth rel. to vehicle” value came out at 30% in the test with SK-N-F1; 18% in the test on Caki-2; 16% in the test with RL95-2; 51% in the test with A498; 22% in the test with SK.BR-3. Besides, the “growth of MOLM-14 cells expressing drug resistant allele” value on CDK19 W105M is reported as “able to proliferate in the presence of cortistatin A”. Further, the GI50 (in general, the concentration at which growth is held to half of that of the control) in the test on ALL-SIL is 2 nM; in the test on MM1.S, 5 nM; with MKPL-1, 1 nM; in the test on JeKo-1, below 1 nM; with HEL, above 1000 nM; in the test with HEL (240 h), above 1000 nM. Moreover, the “RUNX1 recruitment to loci” value with RUNX1 was “RUNX1 was recruited to loci upregulated by CA treatment”. In the test on CDK8/19, the “kinase selectivity (native kinase % inhibition)” value is “selectively inhibits CDK8/19”.
